Laboratory results from patent US20160017054A1, “Spermidine/Spermine N1 - Acetyltransferase Antibodies As Anti-Cancer Drug Compounds” (BIOMARK TECHNOLOGIES INC., priority 2013, published 2016).

Test system: human tumor cell lines U2-OS, HeLa, Malme-3M, PC-3 and HEK293
Assay: Relative cell viability (percent confluency) during incubation with spermidine
Format: cell-based
Conditions: spermidine 22 μM to 550 μM

Structure (SMILES): NCCCCNCCCN [spermidine, Spermidine]
- relative cell viability, expressed as percent confluency (SSAT non-expressing cell lines (U2-OS and HeLa)): highest
- relative cell viability, expressed as percent confluency (SSAT over-expressing cell lines (Malme-M3 and PC-3)): lowest
